Legend:
Experiment in all cases: biochemical
Parameters in all cases: KINOMEscan active-site competition binding panel (468 kinase assays), per cent of control at 1000 nM
Settings in all cases: KINOMEscan per cent of control (binding competition); read-out: Percent Control
CHEK1 = CHEK1 (Homo sapiens, UniProt O14757)
Excerpt: (§1) Figure S7 / Percent Control

DRAK2 = biological target: T1, DRAK2 (Homo sapiens, UniProt O94768)
T1 construct: gene STK17B
Excerpt: as §1

GRK3 = GRK3 (Homo sapiens, UniProt P35626)
Excerpt: as §1

FLT3(D835H) = FLT3(D835H) (Homo sapiens, UniProt P36888, D835H)
Excerpt: as §1

RAF1 = RAF1 (Homo sapiens, UniProt P04049)
Excerpt: as §1

TIE1 = TIE1 (Homo sapiens, UniProt P35590)
Excerpt: as §1

FGFR4 = FGFR4 (Homo sapiens, UniProt P22455)
Excerpt: as §1

EGFR(L858R,T790M) = EGFR(L858R,T790M) (Homo sapiens, UniProt P00533, L858R/T790M)
Excerpt: as §1

CLK4 = CLK4 (Homo sapiens, UniProt Q9HAZ1)
Excerpt: as §1

ZAK = biological target: T2, ZAK (Homo sapiens, UniProt Q9NYL2)
T2 construct: gene MAP3K20
Excerpt: as §1

AAK1 = AAK1 (Homo sapiens, UniProt Q2M2I8)
Excerpt: as §1

MYLK2 = MYLK2 (Homo sapiens, UniProt Q9H1R3)
Excerpt: as §1

CDC2L2 = biological target: T3, CDC2L2 (Homo sapiens, UniProt Q9UQ88)
T3 construct: gene CDK11A
Excerpt: as §1

EGFR(E746-A750del) = EGFR(E746-A750del) (Homo sapiens, UniProt P00533, DEL746-750)
Excerpt: as §1

WEE2 = WEE2 (Homo sapiens, UniProt P0C1S8)
Excerpt: as §1

STK16 = STK16 (Homo sapiens, UniProt O75716)
Excerpt: as §1

PCTK3 = biological target: T4, PCTK3 (Homo sapiens, UniProt Q07002)
T4 construct: gene CDK18
Excerpt: as §1

PFTAIRE2 = biological target: T5, PFTAIRE2 (Homo sapiens, UniProt Q96Q40)
T5 construct: gene CDK15
Excerpt: as §1

LIMK1 = LIMK1 (Homo sapiens, UniProt P53667)
Excerpt: as §1

[1] = biological target: T6, ABL1(F317I)-phosphorylated (Homo sapiens, UniProt P00519, F317I)
T6 construct: phosphorylated
Excerpt: as §1

EGFR = EGFR (Homo sapiens, UniProt P00533)
Excerpt: as §1

MAPKAPK5 = MAPKAPK5 (Homo sapiens, UniProt Q8IW41)
Excerpt: as §1

GCN2(Kin.Dom.2,S808G) = biological target: T7, GCN2(Kin.Dom.2,S808G) (Homo sapiens, UniProt Q9P2K8, S808G)
T7 construct: gene EIF2AK4; Kin.Dom.2
Excerpt: as §1

KIT(V559D,V654A) = KIT(V559D,V654A) (Homo sapiens, UniProt P10721, V559D/V654A)
Excerpt: as §1

AAK1, sequence (Q2M2I8 whole entry): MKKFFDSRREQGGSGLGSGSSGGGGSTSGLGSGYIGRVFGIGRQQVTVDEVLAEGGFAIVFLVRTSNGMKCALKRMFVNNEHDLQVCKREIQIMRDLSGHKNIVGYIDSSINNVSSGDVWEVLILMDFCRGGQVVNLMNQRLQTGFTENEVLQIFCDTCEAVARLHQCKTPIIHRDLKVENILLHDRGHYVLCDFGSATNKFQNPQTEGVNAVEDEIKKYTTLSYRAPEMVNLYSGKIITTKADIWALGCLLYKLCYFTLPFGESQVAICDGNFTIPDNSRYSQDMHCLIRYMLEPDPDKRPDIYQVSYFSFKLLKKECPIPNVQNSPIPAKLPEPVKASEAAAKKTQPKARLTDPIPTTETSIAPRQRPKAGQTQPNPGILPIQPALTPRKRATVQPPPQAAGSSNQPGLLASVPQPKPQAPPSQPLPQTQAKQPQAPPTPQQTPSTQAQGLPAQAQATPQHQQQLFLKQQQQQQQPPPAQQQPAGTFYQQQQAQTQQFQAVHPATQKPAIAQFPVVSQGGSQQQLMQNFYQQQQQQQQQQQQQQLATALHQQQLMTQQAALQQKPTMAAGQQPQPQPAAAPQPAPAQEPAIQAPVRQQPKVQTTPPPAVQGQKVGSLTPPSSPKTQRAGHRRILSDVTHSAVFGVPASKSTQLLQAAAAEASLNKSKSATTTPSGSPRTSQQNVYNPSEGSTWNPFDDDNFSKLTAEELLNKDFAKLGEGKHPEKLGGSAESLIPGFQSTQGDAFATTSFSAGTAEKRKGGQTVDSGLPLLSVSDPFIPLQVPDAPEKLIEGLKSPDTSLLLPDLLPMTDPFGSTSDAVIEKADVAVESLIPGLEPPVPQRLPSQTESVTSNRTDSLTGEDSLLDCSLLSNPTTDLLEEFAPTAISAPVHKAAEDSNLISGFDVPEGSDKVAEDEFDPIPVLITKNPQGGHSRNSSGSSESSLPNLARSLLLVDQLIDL
WEE2, sequence (P0C1S8 whole entry): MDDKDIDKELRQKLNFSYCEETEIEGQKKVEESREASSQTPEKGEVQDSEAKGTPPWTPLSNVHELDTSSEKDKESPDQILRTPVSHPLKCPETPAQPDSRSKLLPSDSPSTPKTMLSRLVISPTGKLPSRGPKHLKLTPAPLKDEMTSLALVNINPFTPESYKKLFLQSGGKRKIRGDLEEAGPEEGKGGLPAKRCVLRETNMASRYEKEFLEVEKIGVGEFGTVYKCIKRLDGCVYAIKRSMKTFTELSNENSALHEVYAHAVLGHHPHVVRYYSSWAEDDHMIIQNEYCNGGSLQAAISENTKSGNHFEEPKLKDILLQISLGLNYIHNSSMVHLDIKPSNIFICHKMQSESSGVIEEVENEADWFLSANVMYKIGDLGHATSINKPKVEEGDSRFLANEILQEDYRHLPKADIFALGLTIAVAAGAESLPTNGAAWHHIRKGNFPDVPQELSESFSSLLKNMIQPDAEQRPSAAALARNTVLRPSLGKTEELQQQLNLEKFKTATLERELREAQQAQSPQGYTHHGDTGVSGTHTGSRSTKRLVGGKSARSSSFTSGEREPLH
T7 sequence (Q9P2K8 whole entry S808G): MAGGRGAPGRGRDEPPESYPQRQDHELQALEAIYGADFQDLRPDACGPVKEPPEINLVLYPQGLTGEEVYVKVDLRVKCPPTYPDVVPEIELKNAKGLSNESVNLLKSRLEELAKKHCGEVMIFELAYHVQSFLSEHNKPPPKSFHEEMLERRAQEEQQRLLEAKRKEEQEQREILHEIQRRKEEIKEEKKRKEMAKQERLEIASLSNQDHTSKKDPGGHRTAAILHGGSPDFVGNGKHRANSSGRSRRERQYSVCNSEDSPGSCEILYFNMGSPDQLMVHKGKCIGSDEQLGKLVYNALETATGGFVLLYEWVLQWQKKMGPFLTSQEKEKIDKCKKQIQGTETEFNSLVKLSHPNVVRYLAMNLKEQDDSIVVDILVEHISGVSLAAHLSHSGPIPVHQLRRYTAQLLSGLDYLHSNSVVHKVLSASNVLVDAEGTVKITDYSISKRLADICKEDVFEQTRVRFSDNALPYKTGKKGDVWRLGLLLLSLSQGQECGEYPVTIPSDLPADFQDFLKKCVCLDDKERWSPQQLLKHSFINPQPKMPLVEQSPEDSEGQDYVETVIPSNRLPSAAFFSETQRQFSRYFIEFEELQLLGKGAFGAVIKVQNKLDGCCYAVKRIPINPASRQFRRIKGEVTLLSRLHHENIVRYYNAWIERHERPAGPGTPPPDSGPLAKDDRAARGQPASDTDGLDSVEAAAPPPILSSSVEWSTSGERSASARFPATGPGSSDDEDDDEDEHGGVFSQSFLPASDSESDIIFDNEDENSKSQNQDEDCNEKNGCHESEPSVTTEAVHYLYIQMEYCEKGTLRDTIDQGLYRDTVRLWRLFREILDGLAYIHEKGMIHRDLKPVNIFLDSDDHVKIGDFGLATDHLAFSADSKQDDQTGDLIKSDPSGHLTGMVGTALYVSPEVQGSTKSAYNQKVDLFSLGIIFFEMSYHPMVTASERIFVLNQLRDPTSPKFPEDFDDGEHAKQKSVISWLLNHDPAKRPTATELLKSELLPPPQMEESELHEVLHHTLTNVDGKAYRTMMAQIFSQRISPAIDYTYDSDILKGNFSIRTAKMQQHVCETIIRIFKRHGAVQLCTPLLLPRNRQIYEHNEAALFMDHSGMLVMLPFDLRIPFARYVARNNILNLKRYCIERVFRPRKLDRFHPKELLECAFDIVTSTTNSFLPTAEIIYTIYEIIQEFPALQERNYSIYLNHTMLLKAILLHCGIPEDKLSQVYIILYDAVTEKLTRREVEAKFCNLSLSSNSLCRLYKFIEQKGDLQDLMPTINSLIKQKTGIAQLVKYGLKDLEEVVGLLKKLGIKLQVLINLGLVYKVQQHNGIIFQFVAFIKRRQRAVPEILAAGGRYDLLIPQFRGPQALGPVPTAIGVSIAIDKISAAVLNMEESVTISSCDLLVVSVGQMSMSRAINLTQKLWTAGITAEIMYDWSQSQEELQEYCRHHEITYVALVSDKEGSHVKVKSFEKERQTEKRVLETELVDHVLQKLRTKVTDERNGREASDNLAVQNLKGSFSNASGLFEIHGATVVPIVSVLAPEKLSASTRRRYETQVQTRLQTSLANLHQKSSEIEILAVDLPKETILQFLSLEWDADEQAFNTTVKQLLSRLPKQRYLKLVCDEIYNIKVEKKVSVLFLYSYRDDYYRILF
T5 sequence (Q96Q40 whole entry): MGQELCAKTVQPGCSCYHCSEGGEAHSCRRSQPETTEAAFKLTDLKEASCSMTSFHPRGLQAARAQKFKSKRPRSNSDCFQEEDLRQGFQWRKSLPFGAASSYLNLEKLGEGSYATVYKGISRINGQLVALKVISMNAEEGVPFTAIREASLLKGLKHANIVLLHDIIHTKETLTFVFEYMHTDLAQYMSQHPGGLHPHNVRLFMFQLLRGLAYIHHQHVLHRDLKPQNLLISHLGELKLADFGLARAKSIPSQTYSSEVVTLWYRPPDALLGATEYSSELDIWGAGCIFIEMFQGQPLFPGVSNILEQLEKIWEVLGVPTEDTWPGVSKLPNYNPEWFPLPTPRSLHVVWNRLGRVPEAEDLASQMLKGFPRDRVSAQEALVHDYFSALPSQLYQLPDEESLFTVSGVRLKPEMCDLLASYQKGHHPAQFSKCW
STK16, sequence (O75716 whole entry): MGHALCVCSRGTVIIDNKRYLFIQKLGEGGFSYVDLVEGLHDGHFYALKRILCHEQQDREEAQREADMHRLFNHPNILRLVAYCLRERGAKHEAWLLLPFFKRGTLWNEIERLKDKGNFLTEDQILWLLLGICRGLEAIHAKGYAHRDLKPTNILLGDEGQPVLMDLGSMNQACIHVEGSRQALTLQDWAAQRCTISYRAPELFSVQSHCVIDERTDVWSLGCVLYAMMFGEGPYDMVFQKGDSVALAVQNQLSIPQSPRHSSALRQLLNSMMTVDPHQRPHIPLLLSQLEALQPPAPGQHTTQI
CHEK1, sequence (O14757 whole entry): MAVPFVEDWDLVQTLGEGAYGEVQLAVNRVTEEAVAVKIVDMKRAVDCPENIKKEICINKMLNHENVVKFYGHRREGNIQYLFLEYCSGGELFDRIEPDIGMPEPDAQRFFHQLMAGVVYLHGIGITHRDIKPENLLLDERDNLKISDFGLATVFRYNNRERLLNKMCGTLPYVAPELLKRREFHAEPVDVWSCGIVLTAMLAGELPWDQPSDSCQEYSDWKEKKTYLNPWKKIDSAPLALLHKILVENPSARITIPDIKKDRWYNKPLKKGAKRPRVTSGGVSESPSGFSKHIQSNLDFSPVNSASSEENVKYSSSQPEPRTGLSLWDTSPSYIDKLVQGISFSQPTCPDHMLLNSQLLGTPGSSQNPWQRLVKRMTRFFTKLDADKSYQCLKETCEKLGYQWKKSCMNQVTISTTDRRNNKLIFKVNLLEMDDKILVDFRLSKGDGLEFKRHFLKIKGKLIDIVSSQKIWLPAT
T1 sequence (O94768 whole entry): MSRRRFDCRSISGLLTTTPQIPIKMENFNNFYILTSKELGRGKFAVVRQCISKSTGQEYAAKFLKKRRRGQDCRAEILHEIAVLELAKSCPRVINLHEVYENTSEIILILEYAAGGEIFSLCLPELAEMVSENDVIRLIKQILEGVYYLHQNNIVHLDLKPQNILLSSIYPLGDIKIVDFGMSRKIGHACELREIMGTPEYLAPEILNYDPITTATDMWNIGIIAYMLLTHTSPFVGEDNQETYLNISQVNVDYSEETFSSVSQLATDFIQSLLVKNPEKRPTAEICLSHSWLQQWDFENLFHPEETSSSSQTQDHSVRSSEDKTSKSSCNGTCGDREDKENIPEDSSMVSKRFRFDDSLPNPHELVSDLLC

Compound `Cn1c(=O)[nH]c2ccc(-c3cccc(C(=O)NC4CCn5ccnc5C4)c3)cc21` (stereo not drawn) [Z36-MP5] has a remaining binding at 1 µM (CHEK1) of 93%, a remaining binding at 1 µM (DRAK2) of 79% and a remaining binding at 1 µM (GRK3) of 53%. For the same compound, the remaining binding at 1 µM (FLT3(D835H)) was 81%, the remaining binding at 1 µM (RAF1) was 83% and the remaining binding at 1 µM (TIE1) was 97%. For the same compound, the remaining binding at 1 µM (FGFR4) was 76%, the remaining binding at 1 µM (EGFR(L858R,T790M)) was 39% and the remaining binding at 1 µM (CLK4) was 69%. It also gave a remaining binding at 1 µM (ZAK) of 95%, a remaining binding at 1 µM (AAK1) of 91% and a remaining binding at 1 µM (MYLK2) of 96%. The remaining binding at 1 µM (CDC2L2) was 99%, the remaining binding at 1 µM (EGFR(E746-A750del)) was 63% and the remaining binding at 1 µM (WEE2) was 96%. The remaining binding at 1 µM (STK16) was 31%, the remaining binding at 1 µM (PCTK3) was 86% and the remaining binding at 1 µM (PFTAIRE2) was 90%. For the same compound, the remaining binding at 1 µM (LIMK1) was 85%, the remaining binding at 1 µM [1] was 90% and the remaining binding at 1 µM (EGFR) was 97%. For the same compound, the remaining binding at 1 µM (MAPKAPK5) was 63%, the remaining binding at 1 µM (GCN2(Kin.Dom.2,S808G)) was 94% and the remaining binding at 1 µM (KIT(V559D,V654A)) was 76%.

Source: paper PMC10924921, “Mi-2β promotes immune evasion in melanoma by activating EZH2 methylation” (Nature Communications, 2024)
